Data: US20150258052A1, “METHODS OF USING FEXARAMINE AND AGENTS THAT INCREASE SYMPATHETIC NERVOUS SYSTEM ACTIVITY TO PROMOTE BROWNING OF WHITE ADIPOSE TISSUE” (Salk Institute for Biological Studies, priority 2014, published 2015)

Legend:
[1] = molecular target: T1, human TGR5 (Homo sapiens, UniProt Q8TDU6); test: TGR5 cAMP-response element luciferase reporter in HEK293 cells; type: cell-based; settings: HEK293 cells transfected with human TGR5, treated 5 hours
T1 construct: expressed in transfected cells; host or cells: HEK293
T1 sequence (Q8TDU6 1-330): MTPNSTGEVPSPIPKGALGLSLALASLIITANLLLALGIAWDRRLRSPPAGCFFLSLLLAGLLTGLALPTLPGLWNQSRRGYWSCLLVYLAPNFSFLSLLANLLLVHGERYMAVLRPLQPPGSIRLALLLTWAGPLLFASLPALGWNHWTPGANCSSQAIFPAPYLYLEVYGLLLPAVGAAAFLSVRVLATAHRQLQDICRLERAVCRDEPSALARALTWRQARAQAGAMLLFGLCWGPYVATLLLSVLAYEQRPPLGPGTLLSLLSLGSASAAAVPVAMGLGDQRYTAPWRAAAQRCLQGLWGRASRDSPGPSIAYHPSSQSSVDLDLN
Description: HEK293 cells were transfected with expression vectors for cAMP-response element luciferase, β-galactosidase and human TGR5. 24 hours after transfection, cells were treated with fexaramine or INT-777 (a TGR5 agonist)
at the indicated concentrations for 5 hours, prior to measurement of luciferase activity. Data represent the mean±SD. Statistical analysis was performed with the Student's t test. *p<0.05, **p<0.01.

[2] = LC/MS quantification of serum fexaramine after PO or IP administration; type: in vivo, mice
Description: FIG. 1D is a schematic diagram illustrating an experimental procedure used to evaluate fexaramine, where mice were treated with vehicle or fexaramine (100 mg/kg) via PO or IP injection, and LC/MS quantification of serum fexaramine was conducted five days later.
FIG. 1E is a bar chart illustrating serum fexaramine concentrations after administration as described in FIG. 1D. Data represent mean values±STD. Statistical analysis was performed with the Student's t test (*p<0.05, **p<0.01).
Upon exploration of the in vivo effects of fexaramine (Fex) administration, it was discovered that due to ineffectual absorption, oral (PO) and intraperitoneal (IP) drug delivery produced very different effects (FIGS. 1D and 1E).

[3] = test system: normal chow-fed mice; test: Chronic oral fexaramine in normal chow-fed mice; type: in vivo
Description: FIGS. 3A-3D are line graphs and a bar graph showing the effects of fexaramine administration in normal chow-fed mice. The mice were treated with vehicle or fexaramine (100 mg/kg) via PO for 5 weeks. Data represent the mean±STD. Statistical analysis as performed with the Student's t test (*p<0.05, **p<0.01).
To investigate the physiological effects of intestinal FXR activation by fexaramine, mice were subjected to chronic fexaramine (100 mg/kg Fex) PO treatment for 5 weeks.

[4] = test system: DIO mice; test: Chronic oral fexaramine in diet-induced obesity (DIO) mice: weight, adiposity, serum parameters, GTT, ITT; type: in vivo; settings: for glucose tolerance (glucose tolerance test) / insulin sensitivity (insulin tolerance test): PO 5 weeks
Description: FIGS. 2A-2G are graphs illustrating the reduction of diet-induced obesity and improvement in metabolic homeostasis with fexaramine. Mice were fed a high fat diet (HFD) for 14 weeks and then administered daily oral injections of vehicle (open boxes) or fexaramine (100 mg/kg) (solid boxes) for 5 weeks with HFD. Data represent the mean±STD. Statistical analysis was performed with the Student's t test (*p<0.05, **p<0.01).
FIG. 2A is a line chart illustrating changes in body weight of mice fed a high fat diet (HFD) for 14 weeks and then administered daily oral injections of vehicle (open boxes) or fexaramine (100 mg/kg) (solid boxes) for 5 weeks with HFD. n=8 per group.
(§1) FIG. 4A is a line graph showing the effects of fexaramine at various dosage levels on the body weight of mice fed a HFD for 14 weeks and then administered daily oral injections of vehicle or fexaramine (10, 50 or 100 mg/kg) for 5 weeks with a HFD. Data represent the mean±STD. Statistical analysis was performed with the Student's t test (*p<0.05, **p<0.01).
FIG. 4B is a set of digital images showing histological analysis of the ileum and colon following treatment with fexaramine or vehicle. Mice were fed on HFD for 14 weeks, and then administered daily oral injections of vehicle or fexaramine (100 mg/kg) for 5 weeks with HFD.
as §1, with “4C” for “4A”, “glucose tolerance tests in” for “the effects of fexaramine at various dosage levels on the body weight of”, “with” for “with a”
The physiological effects of fexaramine in established obesity (diet-induced obesity, DIO) models were evaluated. C57BL/6J mice were fed a diet of 60% fat for 14 weeks and then treated PO with vehicle or fexaramine (100 mg/kg) for 5 weeks. […] Analyses of serum metabolic parameters including leptin, insulin, cholesterol, and resistin reflected that fexaramine-mediated weight gain resistance is accompanied by improved endocrine and metabolic profiles (FIGS. 2D and 4D).
Obesity and its metabolic complications are associated with chronic low-grade inflammation, reflected by elevated serum levels of inflammatory cytokines. […] Therefore, glucose tolerance tests (GTTs) and insulin tolerance tests (ITTs) were performed to determine if glucose homeostasis was improved in fexaramine-treated DIO mice.

[5] = test system: FXR-null mice; test: Fexaramine in HFD-fed FXR-null mice; type: in vivo; settings: 100 mg/kg 5 weeks
Description: Data represent the mean±SD. Statistical analysis was performed with the Student's t test. *p<0.05, **p<0.01.

COC(=O)/C=C/c1cccc(N(Cc2ccc(-c3ccc(N(C)C)cc3)cc2)C(=O)C2CCCCC2)c1 [Fex, fexaramine]
TGR5 activation (luciferase activity) [1]: does not activate | TGR5 activation (luciferase activity) ([1]; listed as fexaramine): fails to activate TGR5 | serum Fex level after PO relative to IP levels ([2]; acute 100 mg/kg, PO compared to IP): 10% | concentration at 5 days ([2]; mouse, serum, PO 100 mg/kg, read-out: serum levels of Fex after PO administration): < 0.025 µM | weight gain, basal metabolic activity and glucose tolerance ([3]; chow-fed mice, 100 mg/kg PO 5 weeks): indistinguishable from vehicle-treated mice | glucose homeostasis ([3]; normal chow-fed mice, range of doses): no effects observed | intestinal toxicity (histology of ileum and colon) ([4]; DIO mice, 100 mg/kg PO 5 weeks): no signs of intestinal toxicity | overall fat mass (MRI) ([4]; DIO mice, 100 mg/kg PO 5 weeks): reduced overall fat mass | serum levels of inflammatory cytokines TNFα, IL-1α, IL-1β, IL-17 and MCP-1 ([4]; DIO mice, 100 mg/kg PO 5 weeks): markedly decreased | wet weights of subcutaneous (inguinal) and visceral (gonadal and mesenteric) adipose depots ([4]; DIO mice, 100 mg/kg PO 5 weeks): significant reductions | glucose, insulin, leptin, cholesterol and resistin levels ([4]; DIO mice, 100 mg/kg PO 5 weeks, serum after 8 hours fasting): reduced glucose, insulin, leptin, cholesterol, and resistin levels | prevention of weight gain, dose dependence ([4]; DIO mice, 10, 50 or 100 mg/kg PO 5 weeks): dose-dependent manner | weight gain ([4]; DIO mice, HFD 14 weeks then 100 mg/kg PO 5 weeks): prevented weight gain | glucose tolerance (glucose tolerance test) ([4]; DIO mice): dose-dependent improvements | insulin sensitivity (insulin tolerance test) ([4]; DIO mice): dose-dependent improvements | glucose tolerance (glucose tolerance test) ([4]; DIO mice, listed as fexaramine): improved glucose clearance | insulin sensitivity (insulin tolerance test) ([4]; DIO mice, listed as fexaramine): improved insulin sensitivity | weight gain at the highest dose ([4]; DIO mice, highest dose): almost completely abrogated | Fex-induced changes in gene expression and improvements in metabolic homeostasis [5]: abrogated
